Assay results taken from PubChem BioAssay (NCI).
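Protocol summary: plate cells (96-well), add compound at 5 concentrations, incubate 48 h, interpolate endpoints linearly. The concentration for 50% growth inhibition is given as GI50. TGI is the concentration that stops growth completely.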

Key:
Assay in all cases: growth of human tumour cells (NCI), 48 h
[1] = test system: A498 renal
[2] = test system: ACHN renal
[3] = test system: HOP-92 NSCLC
[4] = test system: HT29 colon
[5] = test system: OVCAR-5 ovarian
[6] = test system: PC-3 prostate
[7] = test system: SF-295 CNS
[8] = test system: SK-MEL-5 melanoma
[9] = test system: U251 CNS

Row | Compound | TGI [1] [µM] | TGI [2] [µM] | TGI [3] [µM] | TGI [4] [µM] | TGI [5] [µM] | TGI [6] [µM] | TGI [7] [µM] | TGI [8] [µM] | TGI [9] [µM] | GI50 [1] [µM] | GI50 [2] [µM] | GI50 [3] [µM] | GI50 [4] [µM] | GI50 [5] [µM] | GI50 [7] [µM] | GI50 [8] [µM] | GI50 [9] [µM] | GI50 [6] [µM]
1 | COC(=O)[C@H]1[C@@H](O)[C@@]2(O)c3c(OC)cc(OC)cc3O[C@@]2(c2ccc3c(c2)OCO3)[C@@H]1c1ccccc1 | > 50 | 0.235 | > 50 | 0.273 | 0.206 | > 18 | 0.143 | 0.0688 | > 50 | – | – | – | – | – | – | – | – | –
2 | Cc1ccc(S(=O)(=O)NC(=O)NCCc2ccc(O)c(O)c2)cc1 | > 100 | > 100 | > 100 | > 100 | > 100 | > 100 | > 100 | > 100 | > 100 | – | – | – | – | – | – | – | – | –
3 | Cc1ccc(S(=O)(=O)/N=C2/N(C)CCCS2(=O)=O)cc1 | > 100 | > 100 | > 100 | > 100 | > 100 | > 100 | > 100 | > 100 | > 100 | – | – | – | – | – | – | – | – | –
4 | O=C(CNc1nccs1)Nn1cnc2ccc(S(=O)(=O)Nc3nccs3)cc2c1=O | – | > 100 | > 100 | > 100 | > 100 | > 100 | > 100 | – | > 100 | – | – | – | – | – | – | – | – | –
5 | CCOC(=O)CCC(NC(=O)c1ccc(Nc2nc3cc(C(F)(F)F)ccc3nc2C(=O)OCC)cc1)C(=O)OCC (stereo not given) | – | 26.7 | 9.95 | 18.7 | 39.5 | 21.5 | 19.3 | 93 | 23.3 | – | – | – | – | – | – | – | – | –
6 | N#C/C=c1/c2ccccc2n2nc3ccccc3c12 | 70.3 | 27.9 | – | > 100 | > 100 | > 100 | > 100 | > 100 | 30.9 | – | – | – | – | – | – | – | – | –
7 | C=CCNc1nc(O)c(/C=C2\C=Nc3ncccc32)s1 | 3.7 | > 100 | 6.38 | > 100 | > 100 | – | > 100 | > 100 | 4.35 | 1.5 | 2.21 | 0.227 | 3.05 | 2.66 | 2.5 | 2.86 | 2.07 | –
8 | CC(=O)NNC(=S)/N=C\c1c(O)c2ccccc2oc1=O | > 100 | > 100 | – | > 100 | > 100 | > 100 | > 100 | > 100 | > 100 | – | – | – | – | – | – | – | – | –
9 | Nc1nc2c(c(-c3ccccc3Cl)n1)COC/C2=C\c1ccccc1Cl | 30.6 | 32.3 | 29 | – | 31.7 | 27.4 | 27.7 | 31.7 | 31.6 | – | – | – | – | – | – | – | – | –
10 | COc1cc(S(=O)(=O)Nc2ccc(-c3csc(N4C(=O)C(Cl)C4c4cccc(Oc5ccccc5)c4)n3)cc2)ccc1Cl (stereo not given) | 64.8 | 57.1 | 37.4 | > 100 | > 100 | 30.8 | > 100 | > 100 | – | – | – | – | – | – | – | – | – | –
11 | CCCc1n[nH]c(=O)n1N1C(=O)C=CC1=O | > 100 | – | – | – | > 100 | > 100 | > 100 | > 100 | > 100 | – | – | – | – | – | – | – | – | –
12 | Clc1ccc2nc3n[nH]c(Cl)c3nc2c1 | > 100 | > 100 | – | > 100 | > 100 | > 100 | > 100 | 97.8 | > 100 | – | – | – | – | – | – | – | – | –
13 | O=C(O)CN1CCCC(Cc2c[nH]c3ccccc23)C1 (stereo not given) | – | > 100 | > 100 | – | > 100 | > 100 | > 100 | > 100 | – | – | – | – | – | – | – | – | – | –
14 | O=C(/C=C/c1ccc2c(c1)OCO2)NCCc1ccco1 | – | > 100 | > 100 | > 100 | > 100 | > 100 | > 100 | > 100 | > 100 | – | – | – | – | – | – | – | – | –
15 | COC(=O)c1ccccc1NC(=S)NN(C)C | > 100 | > 100 | – | – | > 100 | > 100 | > 100 | – | > 100 | – | – | – | – | – | – | – | – | –
16 | Oc1cc(O)c2c(c1)O[C@H](c1cc(O)c(O)c(O)c1)[C@@H](O)C2 | > 100 | 48 | > 10 | – | 34.8 | 76.2 | 73.2 | 60.2 | 34.5 | – | – | – | – | – | – | – | – | –
17 | CCCCC(=C=C(C)CO)C1CCCN1C(=O)OC(C)(C)C (stereo not given) | – | 68.2 | 25.6 | 34.3 | 39.9 | 38.1 | 31.7 | 29.8 | 31.7 | – | – | – | – | – | – | – | – | –
18 | Cn1cc(-c2nc(-c3c[nH]c4ccncc34)cs2)c2ccccc21 | 3.3 | 2.96 | – | – | 3.18 | 2.96 | 3.32 | – | – | 1.86 | 1.6 | – | – | 1.76 | 1.77 | – | – | 1.45
